Assay results published in patent US20210346394A1, “Remyelination Therapy” (The Regents of the University of California, priority 2016, published 2021).

Experiments:
[1] = system: demyelinated lesion in corpus callosum; assay: Lysolecithin-induced demyelination of the corpus callosum; assay type: in vivo; settings: mice, 10 mg/kg for 7 days after lysolecithin, 10 days post injection, vs vehicle
Experimental: Example 5. Effects of BZA on OPC Differentiation. Lysolecithin was injected in the corpus callosum of mice and analyzed at 6 days after injection, showing a demyelinated lesion area. Mice were treated with either BZA (10 mg/kg) or vehicle control for 7 days after injection of lysolecithin. Mice were euthanized at 10 days post injection and brains were sectioned and immunostained for myelin oligodendrocyte glycoprotein peptide (MOG), Adenomatous polyposis coli (APC-a maker of mature oligodendrocytes) and Olig2. Quantification of APC-positive cells indicated a 2-fold increase in remyelination in the corpus callosum after treatment with BZA, as depicted in FIG. 3.
Example 6. BZA effects on remyelination kinetics. Toxic, focal demyelinating injury was induced in the corpus callosum of 8-week old adult mice the rate and extent of remyelination was assessed, using previously described methodology. Demyelination was induced by injecting 1 μl of 1% solution of lysolecithin. Essential to this demyelinating model is the timeline for repair, comprising active demyelination [1-3 days post lesion (dpl)], OPC recruitment (3-7 dpl, peaking at 5 dpl), oligodendrocyte differentiation (7-10 dpl) and active remyelination (14-21 dpl). Oligodendrocyte differentiation and remyelination at 10 dpl was analyzed, allowing assessment of BZA effects on the kinetics of myelin repair. […]

[2] = system: OPCs derived from WT P7 rat pups; assay: Differentiation of isolated OPCs treated with SERMs (MBP/PDGFRα/DAPI immunostaining); assay type: cell-based; settings: 500 nM for 48 hours
Experimental: Example 3. OPC Differentiation. To assess the effect of selected SERMs on myelination, OPCs were derived from WT P7 rat pups using previously validated methodology, cultured in isolation, and treated with a select group of SERMs at a preliminary concentration of 500 nM for 48 hours. Cells were then permeabilized and immunostained for MBP (oligodendrocytes), PDGFRα (OPCs), and DAPI (cell bodies).

SMILES	increase in remyelination (APC-positive cells) in the corpus callosum [1]	OPC differentiation [2]
Cc1c(-c2ccc(O)cc2)n(Cc2ccc(OCCN3CCCCCC3)cc2)c2ccc(O)cc12 [BZA, bazedoxifene]	2 fold	
CC/C(=C(\c1ccccc1)c1ccc(OCCN(C)C)cc1)c1ccccc1 [tamoxifen]		significantly enhanced OPC differentiation
N#CC(Cc1ccc(O)cc1)c1ccc(O)cc1 (stereo not drawn) [2,3-bis(4-hydroxyphenyl)-propionitrile]		significantly enhanced OPC differentiation
